How the values were obtained:
[1] = test system: patients with chronic symptomatic heart failure and reduced ejection fraction (HF-REF); assay: PARADIGM-HF randomized double-blind trial, LCZ696 versus enalapril: efficacy outcomes; assay type: in vivo, human; settings: for Death from any cause, number of patients / Death from any cause, percent of patients / Death from cardiovascular causes or first hospitalization for worsening heart failure (primary composite outcome), number of patients with an event / Death from cardiovascular causes or first hospitalization for worsening heart failure (primary composite outcome), percent of patients / Death from cardiovascular causes, number of patients / Death from cardiovascular causes, percent of patients / Decline in renal function, percent of patients / First hospitalization for worsening heart failure, number of patients / First hospitalization for worsening heart failure, percent of patients / Protocol-defined decline in renal function, number of patients: LCZ696 200 mg bid (N = 4187) or enalapril 10 mg bid (N = 4212); for Death from any cause, number of patients / Death from any cause, percent of patients / Death from cardiovascular causes or first hospitalization for worsening heart failure (primary composite outcome), number of patients with an event / Death from cardiovascular causes or first hospitalization for worsening heart failure (primary composite outcome), percent of patients / Death from cardiovascular causes, number of patients / Death from cardiovascular causes, percent of patients / Decline in renal function, percent of patients / First hospitalization for worsening heart failure, number of patients / First hospitalization for worsening heart failure, percent of patients / Protocol-defined decline in renal function, number of patients / New onset atrial fibrillation, number of patients with an event (as a fraction of number of patients at risk) / New onset atrial fibrillation, percent of patients at risk: median follow-up 27 months; for Progressed to end-stage renal disease, number of patients / New onset atrial fibrillation, number of patients with an event (as a fraction of number of patients at risk) / New onset atrial fibrillation, percent of patients at risk: LCZ696 200 mg bid or enalapril 10 mg bid; for KCCQ clinical summary score, direction of change when zero values were not imputed for patients who died: baseline to month 8
Source text: Patients with chronic HF, NYHA functional class II-IV symptoms, an elevated plasma B-type natriuretic peptide (BNP) or NT-proBNP level and, initially, a left ventricular ejection fraction of ≤40% (later amended to ≤35%) are eligible. […] Secondary outcome measures are change in the Kansas City Cardiomyopathy Questionnaire (KCCQ) clinical summary score at 8 months, change in renal function, and time to all-cause mortality.
The trial was designed by the academic members of the Executive Committee (EC) in collaboration with Novartis personnel.
Entry criteria: 1) age 18 years or older and able to give written informed consent 2) New York Heart Association (NYHA) functional class II-IV, 3) left ventricular ejection fraction (LVEF) ≤35% (initially this was ≤40% but changed in a protocol amendment dated Dec. 15, 2010), 4) plasma B-type natriuretic peptide (BNP) ≥150 pg/ml (or N-terminal [NT]-proBNP ≥600 pg/ml) at the screening visit or a BNP ≥100 pg/mL (or NT-proBNP ≥400 pg/ml) and a hospitalization for HF within the last 12 months, 5) treatment with a stable dose of an ACE inhibitor or an ARB equivalent to enalapril 10 mg/d for at least 4 weeks before the screening visit, 6) treatment with stable dose of a β-blocker for at least 4 weeks prior to Visit 1, unless contraindicated or not tolerated. Although not required, the protocol specified that an aldosterone antagonist should also be considered in all patients, taking account of renal function, serum potassium and tolerability. If given, the dose of aldosterone antagonist should be stable for at least 4 weeks prior to the screening visit.
The key exclusion criteria include: • 1. […] Previous history of intolerance to recommended target doses of ACEIs or ARBs. • 3. Known history of angioedema. • 4. Requirement of treatment with both ACEIs and ARBs. • 5. Current acute decompensated heart failure (exacerbation of chronic heart failure manifested by signs and symptoms that may require intravenous therapy). • 6. Symptomatic hypotension and/or a systolic blood pressure (SBP)<100 mmHg at Visit 1 (screening) or <95 mmHg at Visit 3 or at Visit 5 (randomization). • 7. […] Serum potassium >5.2 mmol/L at Visit 1 (screening) or >5.4 mmol/L at Visit 3 or Visit 5 (randomization). • 9. Acute coronary syndrome, stroke, transient ischemic attack, cardiac, carotid or other major CV surgery, percutaneous coronary intervention or carotid angioplasty within the 3 months prior to Visit 1. • 10. Coronary or carotid artery disease likely to require surgical or percutaneous intervention within the 6 months after Visit 1. • 11. Implantation of a cardiac resynchronization therapy device (CRT) within 3 months prior
Visit 1 or intent to implant a CRT. • 12. History of heart transplant or on a transplant list or with left ventricular assistance device. • 13. History of severe pulmonary disease. • 14. Diagnosis of peripartum or chemotherapy induced cardiomyopathy within the 12 months prior to Visit 1. • 15. Documented untreated ventricular arrhythmia with syncopal episodes within the 3 months prior to Visit 1. • 16. Symptomatic bradycardia or second or third degree atrio-ventricular block without a pacemaker. • 17. Presence of haemodynamically significant mitral and/or aortic valve disease, except mitral regurgitation secondary to left ventricular dilatation. • 18. Presence of other haemodynamically significant obstructive lesions of left ventricular outflow tract, including aortic and sub-aortic stenosis. • 19. […] Presence of any other disease with a life expectancy of <5 years.
At the screening visit, patient eligibility was assessed according to the inclusion/exclusion criteria. Any local measurement of LVEF ≤35%, made within the past 6 months, was acceptable provided there was no subsequent LVEF measurement above 35%. Eligibility BNP (and NT-proBNP), serum potassium and estimated glomerular filtration rate (eGFR) were measured in a central laboratory.

hypertensive patients = settings: cited from earlier work
HF patients = settings: cited from earlier work
[2] = test system: patients with chronic symptomatic heart failure and reduced ejection fraction (HF-REF); assay: PARADIGM-HF: safety and tolerability
Protocol: Patients are assessed at each study visit for hyperkalaemia, symptomatic hypotension, increase in serum creatinine, angioedema and other AEs and serious AEs (SAEs). […] The dose of background disease modifying drugs, such as β-blockers, should not be reduced to facilitate maintenance of study drug. Every attempt should be made to re-challenge the patients so as to maintain as many patients as possible on the target dose of study drug.
All identified cases are submitted to an independent angioedema adjudication committee for a final decision.
Thus, this study employed a seamless design, incorporating “Phase II” into a “Phase III” outcomes trial, as considered further in the Discussion. Further interim safety assessments are planned twice a year.

[3] = in vivo; cited from earlier work
[4] = test system: patients with heart failure; settings: cited from earlier work
[5] = zero values imputed for patients who died
[6] = LCZ696 group compared with enalapril group, stratified Cox model
[7] = over the duration of the trial, LCZ696 versus enalapril
[8] = subgroups by base-line treatment

With `CCOC(=O)[C@H](CCc1ccccc1)N[C@@H](C)C(=O)N1CCC[C@H]1C(=O)O` [Enalapril, (2S)-1-[(2S)-2-{[(2S)-1-ethoxy-1-oxo-4-phenylbutan-2-yl]amino}propanoyl]-pyrrolidine-2-carboxylic acid, reference compound] the “Death from any cause, number of patients” value [1] was 835 patients, the “Death from any cause, percent of patients” value [1] was 19.8% and the “Death from cardiovascular causes or first hospitalization for worsening heart failure (primary composite outcome), number of patients with an event” value [1] was 1117 patients. The “Death from cardiovascular causes or first hospitalization for worsening heart failure (primary composite outcome), percent of patients” value [1] was 26.5%, the “Death from cardiovascular causes, number of patients” value [1] was 693 patients and the “Death from cardiovascular causes, percent of patients” value [1] was 16.5%. For the same compound, the “Decline in renal function, percent of patients” value [1] was 2.6, the “First hospitalization for worsening heart failure, number of patients” value [1] was 658 patients and the “First hospitalization for worsening heart failure, percent of patients” value [1] was 15.6%. The “Protocol-defined decline in renal function, number of patients” value [1] was 108 patients, the “Progressed to end-stage renal disease, number of patients” value [1] was 16 patients and the “New onset atrial fibrillation, number of patients with an event (as a fraction of number of patients at risk)” value [1] was 83/2638. The “New onset atrial fibrillation, percent of patients at risk” value [1] was “(3.2)”, the “New onset atrial fibrillation, number of patients with an event (as a fraction of number of patients at risk)” value ([1]; listed as enalapril) was 83 patients and the “KCCQ clinical summary score, direction of change when zero values were not imputed for patients who died” value [1] was “declined”. The “Mean change in KCCQ Clinical Summary Score from baseline to month 8” value [1, 5] was −4.63, the Incidence of angioedema (hypertensive patients) was 0.68% and the Incidence of angioedema (HF patients) was 0.5%. For the same compound, the “Angioedema confirmed by blinded adjudication, number of patients” value ([2]; human, in vivo) was 10 patients, the “Patients who stopped study medication because of renal impairment” value ([2]; human, in vivo) was 1.4% and the “Patients who stopped study medication for any adverse event” value ([2]; human, in vivo) was 12.3%.
In the case of `CCCCC(=O)N(Cc1ccc(-c2ccccc2-c2nn[n-]n2)cc1)C(C(=O)[O-])C(C)C.CCOC(=O)C(C)CC(Cc1ccc(-c2ccccc2)cc1)NC(=O)CCC(=O)[O-].[Na+].[Na+].[Na+]` [LCZ696, trisodium [3-((1S,3R)-1-biphenyl-4-ylmethyl-3-ethoxycarbonyl-1-butylcarbamoyl)propionate-(S)-3′-methyl-2′-(pentanoyl{2″-(tetrazol-5-ylate)biphenyl-4′-ylmethyl}amino)butyrate] hemipentahydrate], the “Death from any cause, number of patients” value [1] was 711 patients, the “Death from any cause, percent of patients” value [1] was 17.0% and the “Death from cardiovascular causes or first hospitalization for worsening heart failure (primary composite outcome), number of patients with an event” value [1] was 914 patients. For the same compound, the “Death from cardiovascular causes or first hospitalization for worsening heart failure (primary composite outcome), percent of patients” value [1] was 21.8%, the “Death from cardiovascular causes, number of patients” value [1] was 558 patients and the “Death from cardiovascular causes, percent of patients” value [1] was 13.3%. For the same compound, the “Decline in renal function, percent of patients” value [1] was 2.3, the “First hospitalization for worsening heart failure, number of patients” value [1] was 537 patients and the “First hospitalization for worsening heart failure, percent of patients” value [1] was 12.8%. For the same compound, the “Protocol-defined decline in renal function, number of patients” value [1] was 94 patients, the “Progressed to end-stage renal disease, number of patients” value [1] was 8 patients and the “New onset atrial fibrillation, percent of patients at risk” value [1] was “(3.2)”. The “Death from any cause, hazard ratio” value [1, 6] was 0.84, the “Death from cardiovascular causes, hazard ratio” value [1, 6] was 0.80 and the “Decline in renal function, hazard ratio” value [1, 6] was 0.86. For the same compound, the “First hospitalization for worsening heart failure, hazard ratio” value [1, 6] was 0.79, the “New onset atrial fibrillation, hazard ratio” value [1, 6] was 0.97 and the “Primary composite outcome, hazard ratio” value [1, 6] was 0.80. The “KCCQ clinical summary score change, between-group difference when zero values were not imputed for patients who died” value ([1]; LCZ696 group versus enalapril group) was 0.95, the “KCCQ clinical summary score change at 8 months, between-group difference” value ([1]; LCZ696 group versus enalapril group, zero values imputed for patients who died) was 1.64 and the “Reduction of the risk of cardiovascular death and the risk of hospitalization for heart failure compared to enalapril” value ([1]; LCZ696 versus ACE inhibition with enalapril) was 20%. For the same compound, the “Reduction of hospitalization for heart failure compared to enalapril” value ([1]; LCZ696 versus enalapril) was 21%, the “KCCQ clinical summary score, direction of change when zero values were not imputed for patients who died” value [1] was “improved” and the “Systolic blood pressure at 8 months compared with value at randomization, lower in the LCZ696 group than in the enalapril group” value ([1]; difference between groups at 8 months) was 3.2±0.4 mm Hg. The “Number of patients needed to treat to prevent one cardiovascular death” value [1, 7] was 32 patients, the “Number of patients needed to treat to prevent one primary event” value [1, 7] was 21 patients and the “Mean change in KCCQ Clinical Summary Score from baseline to month 8” value [1, 5] was −2.99. For the same compound, the “Angioedema confirmed by blinded adjudication, number of patients” value ([2]; following randomization) was 19 patients, the “Cough as an adverse event, compared with the enalapril group” value ([2]; following randomization) was “less and less likely” and the “Experience of serum creatinine level ≥2.5 mg/dl, compared with the enalapril group” value ([2]; following randomization) was “less likely”. The “Experience of serum potassium level >6.0 mmol/l, compared with the enalapril group” value ([2]; following randomization) was “less likely”, the “Hypotension / report of symptomatic hypotension, compared with the enalapril group” value ([2]; following randomization) was “more and more likely” and the “Patients who stopped study medication because of renal impairment” value ([2]; following randomization) was 0.7%. The “Patients who stopped study medication for any adverse event” value ([2]; following randomization) was 10.7%, the “Hyperkalemia, compared with the enalapril group” value ([2]; in vivo) was “less” and the “Non-serious angioedema, compared with the enalapril group” value ([2]; in vivo) was “more”. For the same compound, the “Renal impairment, compared with the enalapril group” value ([2]; in vivo) was “less”.
For `O=C(N[C@H]1CCS[C@H]2CCC[C@@H](C(=O)O)N2C1=O)[C@@H](S)Cc1ccccc1` [omapatrilat], the Incidence of angioedema (hypertensive patients) is listed as 2.17%, the Incidence of angioedema (HF patients) is listed as 0.8% and the “Mortality and morbidity in patients with HF relative to enalapril” value (HF patients) is listed as “encouraging trend toward reducing mortality and morbidity”. The “BP lowering as compared to other therapeutic classes, including ACE inhibitors and calcium channel blockers” value [3] was “greater BP lowering”.
For `CCCCC(=O)N(Cc1ccc(-c2ccccc2-c2nnn[nH]2)cc1)[C@H](C(=O)O)C(C)C` [valsartan, (S)—N-valeryl-N-{[2′-(1H-tetrazole-5-yl)-biphenyl-4-yl]-methyl}-valine], the “Incidence of the combined end point of mortality and morbidity, lower with valsartan than with placebo” value ([4]; Val-HeFT) is given as 13.2%, the “NYHA class, ejection fraction, signs and symptoms of heart failure, and quality of life as compared with placebo” value ([4]; Val-HeFT) is given as “significant improvements” and the “Number of patients hospitalized for heart failure” value ([4]; Val-HeFT) is given as 346 patients. The “Overall mortality compared with placebo group” value ([4]; Val-HeFT) was “similar”, the “Percent of patients hospitalized for heart failure” value ([4]; Val-HeFT) was 13.8% and the “Post hoc analysis of the combined end point and mortality, patients receiving both ACE inhibitors and beta-blockers” value [4, 8] was “adverse effect”. For the same compound, the “Post hoc analysis of the combined end point and mortality, patients receiving neither or one of ACE inhibitors or beta-blockers” value [4, 8] was “favorable effect” and the “Combined end point of mortality and morbidity, relative risk” value ([4]; valsartan versus placebo) was 0.87.

Reference: US20210077461A1, “NEW USE” (Novartis AG, priority 2013, published 2021)
